The values that follow are results of earlier work, collected in publication PMC9516532, “A genetically encoded BRET-based SARS-CoV-2 M^pro protease activity sensor” (Communications Chemistry, 2022).

The test system of the data set is P-gp. The following applies: reviewer's comment; ref ACS Infect. Dis. 2021, 7, 3, 586–597.

As for `CC(C)C[C@H](NC(=O)OCc1ccccc1)C(=O)N[C@@H](C[C@@H]1CCNC1=O)C(O)S(=O)(=O)[O-].[Na+]` (stereo partly shown) [GC376], the P-gp substrate result is recorded as “known substrate of P-gp”.
